For the assay, the target named is T1, FAAH (Rattus norvegicus, UniProt P97612).
T1 construct: Frozen brains (without cerebellum) from Wistar rats were used; from tissue; host or cells: Wistar rat brain (without cerebellum), washed membrane pellets
T1 sequence (P97612 1-579): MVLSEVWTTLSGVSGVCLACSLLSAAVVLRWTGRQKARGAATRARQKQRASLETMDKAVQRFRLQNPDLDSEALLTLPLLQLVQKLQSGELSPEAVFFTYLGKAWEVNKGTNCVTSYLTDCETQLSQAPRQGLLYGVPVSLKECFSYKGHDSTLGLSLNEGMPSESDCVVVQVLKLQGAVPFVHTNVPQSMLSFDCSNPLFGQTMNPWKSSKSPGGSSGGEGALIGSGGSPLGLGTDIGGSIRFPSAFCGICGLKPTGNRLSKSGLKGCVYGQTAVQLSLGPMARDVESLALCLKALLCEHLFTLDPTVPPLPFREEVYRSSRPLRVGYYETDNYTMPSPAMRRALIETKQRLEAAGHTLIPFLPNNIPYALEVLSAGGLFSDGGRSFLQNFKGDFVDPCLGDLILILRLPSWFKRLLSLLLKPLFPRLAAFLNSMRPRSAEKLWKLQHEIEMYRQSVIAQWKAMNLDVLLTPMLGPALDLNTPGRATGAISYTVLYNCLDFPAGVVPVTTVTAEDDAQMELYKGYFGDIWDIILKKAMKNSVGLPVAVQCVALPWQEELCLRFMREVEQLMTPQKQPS
The assay is described as follows: In vitro FAAH activity in rat brain membranes, 3H-AEA substrate, % of control. The conditions noted are these: low value = strong inhibitor; for In Vitro FAAH activity, 100 nM: 100 nM test compound; for In Vitro FAAH activity, 10 uM: 10 uM test compound. In kind it is biochemical, Wistar rats. In outline:
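Wistar rat brain membranes (5 μg protein) preincubated 15 min at 37 °C with compound at 10 μM or 0.1 μM (0.1% DMSO), then 2 μM AEA including 3H-AEA with 0.1% BSA, Tris pH 7.6, 10 min. 3H-ethanolamine counted after charcoal stop; % of no-compound control after blank subtraction.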

Results on 16 compounds are retold here after patent publication US9353082B2, “Pharmaceutical compounds” (BIAL—PORTELA & CA, S.A., priority 2008, dated 2016).

`O=C(N1CCOCC1)n1nc(Cl)c2ccccc21` [Compound 72, (3-chloro-1H-indazol-1-yl)(morpholino)methanone]: the “In Vitro FAAH activity, 100 nM” value was 87.6 % of control.
As for `O=C(N1CCSC1)n1nnc2ccccc21` [Compound 170, (1H-benzo[d][1,2,3]triazol-1-yl)(thiazolidin-3-yl)methanone], the “In Vitro FAAH activity, 100 nM” value is 2.1 % of control.
Turning to `O=C(Nc1ccc(Oc2ccccc2)cc1)n1ccc(-c2ccccc2)n1` [Compound 10, N-(4-phenoxyphenyl)-3-phenyl-1H-pyrazole-1-carboxamide], the “In Vitro FAAH activity, 10 uM” value is 55 % of control.
In the case of `NC(=O)c1ccc(Oc2cccc(-c3ncn(C(=O)N4CCc5ccccc5C4)n3)c2)cc1` [Compound 207, 4-(3-(1-(1,2,3,4-tetrahydroisoquinoline-2-carbonyl)-1H-1,2,4-triazol-3-yl)phenoxy)benzamide], the “In Vitro FAAH activity, 100 nM” value is recorded as 31.6 % of control.
Same read-out and setting: the same measure for `CCC1CN(C(=O)n2cnc(-c3ccccc3)c2)C(C)(C)O1` (stereo not drawn) [Compound 270, (5-ethyl-2,2-dimethyloxazolidin-3-yl)(4-phenyl-1H-imidazol-1-yl)methanone]: 113.1 % of control; for `CN(C(=O)n1cnc(-c2ccccc2)n1)c1ccc(F)cc1F` [Compound 74, N-(2,4-difluorophenyl)-N-methyl-3-phenyl-1H-1,2,4-triazole-1-carboxamide]: 73.2 % of control; for `Cc1ccc(OC2CCN(C(=O)n3cnc(-c4ccc(F)cc4F)n3)CC2)cc1` [Compound 134, (3-(2,4-difluorophenyl)-1H-1,2,4-triazol-1-yl)(4-(p-tolyloxy)piperidin-1-yl)methanone]: 34.5 % of control.
As to `COc1cccc(-c2cn(C(=O)N(C)c3ccccc3)cn2)c1` [Compound 31, 4-(3-methoxyphenyl)-N-methyl-N-phenyl-1H-imidazole-1-carboxamide], the “In Vitro FAAH activity, 100 nM” value is 69 % of control and the “In Vitro FAAH activity, 10 uM” value is 0 % of control.
For `CN(C(=O)n1cnc(-c2ccc(Oc3ccc(C(N)=O)cc3)cc2)n1)c1ccccc1` [Compound 149, 3-(4-(4-carbamoylphenoxy)phenyl)-N-methyl-N-phenyl-1H-1,2,4-triazole-1-carboxamide], the “In Vitro FAAH activity, 100 nM” value is listed as 49.9 % of control.
Turning to `CC1(C)COCN1C(=O)n1cnc(-c2ccccc2)c1` [Compound 161, (4,4-dimethyloxazolidin-3-yl)(4-phenyl-1H-imidazol-1-yl)methanone], the “In Vitro FAAH activity, 100 nM” value is 93.6 % of control and the “In Vitro FAAH activity, 10 uM” value was 3.3 % of control.
`CCN(C(=O)n1nnc2ccccc21)C1CCCCC1` [Compound 104, N-cyclohexyl-N-ethyl-1H-benzo[d][1,2,3]triazole-1-carboxamide]: the “In Vitro FAAH activity, 100 nM” value is on record as 94.2 % of control.
Same read-out and setting: the value for `O=C(N1CCN(Cc2ccccc2)CC1)n1cnc(-c2ccccc2)c1` [Compound 102, (4-benzylpiperazin-1-yl)(4-phenyl-1H-imidazol-1-yl)methanone] was 0.9 % of control; that for `O=C(N1CCC(c2ccccc2)CC1)n1nnc2ccccc21` [Compound 94, (1H-benzo[d][1,2,3]triazol-1-yl)(4-phenylpiperidin-1-yl)methanone] was 0 % of control; that for `O=C(N1CCN(c2ccc(O)cc2)CC1)n1nnc2ccccc21` [Compound 136, (1H-benzo[d][1,2,3]triazol-1-yl)(4-(4-hydroxyphenyl)piperazin-1-yl)methanone] was 0.2 % of control.
`O=C(N1CCOCC1)n1cnc(-c2ccccc2)c1` [Compound 3, morpholino(4-phenyl-1H-imidazol-1-yl)methanone]: the “In Vitro FAAH activity, 10 uM” value is given as 4.8 % of control.
For the compound `CN(C(=O)n1cnc(-c2ccc(OCCN3CCOCC3)cc2)c1)c1ccccc1.Cl` [Compound 230, N-methyl-4-(4-(2-morpholinoethoxy)phenyl)-N-phenyl-1H-imidazole-1-carboxamide hydrochloride], the “In Vitro FAAH activity, 100 nM” value is given as 96.1 % of control.
